Where “and” joins values, the source holds several entries; their conditions need not be identical. Equal values may be shown once.
Tested on: Rattus norvegicus
Test: Anti-inflammatory activity in Wistar rat assessed as inhibition of carrageenan-induced paw edema at 10 mg/kg, ip pretreated for 1 hr followed by carrageenan challenge and measured after 4 hr relative to control (reference value: 0.00 +/-0.4 %)
Assay type: functional
Conditions: time 5 hrs

SMILES	inhibition in vivo at 10 mg/kg
COc1cc(/C=C/C(=O)/C=C(O)/C=C/c2ccc(OC(=O)CCN)c(OC)c2)ccc1OC(=O)CCN.Cl.Cl	89%

Tested on: Mus musculus
Test: Analgesic activity in albino mouse assessed reduction in acetic acid-induced abdominal writhing by measuring writing reflex at 10 mg/kg, ip pretreated for 1 hr followed by acetic acid challenge and measured starting 5 mins post acetic acid challenge for 10 mins (reference value: 42.4 +/- 1.02)
Assay type: functional
Conditions: time 75 min, 1.25 h

SMILES	Activity
COc1cc(/C=C/C(=O)/C=C(O)/C=C/c2ccc(OC(=O)CCN)c(OC)c2)ccc1OC(=O)CCN.Cl.Cl	25.6

Tested on: Splenocyte
Test: Immunomodulatory activity in Swiss albino mouse splenocytes assessed as cell viability at 10 uM by measuring stimulation index incubated for 72 hrs in presence of mitogenic stimulus phytohaemagglutinin by MTT assay (reference value: 1.00 +/- 0.24)
Assay type: functional
Conditions: not given

SMILES	Activity_index
COc1cc(/C=C/C(=O)/C=C(O)/C=C/c2ccc(OC(=O)CCN)c(OC)c2)ccc1OC(=O)CCN.Cl.Cl	1.39

Tested on: Rattus norvegicus
Test: Anti-inflammatory activity in Wistar rat assessed as inhibition of carrageenan-induced paw edema at 10 mg/kg, ip pretreated for 1 hr followed by carrageenan challenge and measured after 24 hr relative to control (reference value: 0.00 +/-0.3 %)
Assay type: functional
Conditions: time 25 hrs

SMILES	inhibition in vivo at 10 mg/kg
COc1cc(/C=C/C(=O)/C=C(O)/C=C/c2ccc(OC(=O)CCN)c(OC)c2)ccc1OC(=O)CCN.Cl.Cl	72%

Tested on: Salmonella typhimurium
Test: Antibacterial activity against Salmonella typhimurium ATCC 19430 incubated for 18 hrs by agar dilution assay
Assay type: functional, Salmonella enterica subsp. enterica serovar Typhimurium
Conditions: Salmonella enterica

MIC	SMILES
1 µg/mL and 1.71 µM	COc1cc(/C=C/C(=O)/C=C(O)/C=C/c2ccc(OC(=O)CCN)c(OC)c2)ccc1OC(=O)CCN.Cl.Cl

Tested on: Rattus norvegicus
Test: Antiinflammatory activity in Wistar rat model of carrageenan-induced paw edema assessed as reduction in thickness of paw edema at 10 mg/kg, ip pretreated for 1 hr followed by carrageenan challenge and measured after 24 hrs (reference value: 0.83 +/-0.08 mm)
Assay type: functional
Conditions: time 25 hrs

SMILES	Activity
COc1cc(/C=C/C(=O)/C=C(O)/C=C/c2ccc(OC(=O)CCN)c(OC)c2)ccc1OC(=O)CCN.Cl.Cl	0.23 mm

Tested on: Rattus norvegicus
Test: Anti-inflammatory activity in Wistar rat assessed as inhibition of carrageenan-induced paw edema at 10 mg/kg, ip pretreated for 1 hr followed by carrageenan challenge and measured after 2 hr relative to control (reference value: 0.00 +/-0.03 %)
Assay type: functional
Conditions: time 3 hrs

SMILES	inhibition in vivo at 10 mg/kg
COc1cc(/C=C/C(=O)/C=C(O)/C=C/c2ccc(OC(=O)CCN)c(OC)c2)ccc1OC(=O)CCN.Cl.Cl	71%

Tested on: Mus musculus
Test: Analgesic activity in albino mouse assessed protection against acetic acid-induced abdominal writhing at 10 mg/kg, ip pretreated for 1 hr followed by acetic acid challenge and measured starting 5 mins post acetic acid challenge for 10 mins relative to control (reference value: 0 %)
Assay type: functional
Conditions: time 75 min, 1.25 h

SMILES	Activity
COc1cc(/C=C/C(=O)/C=C(O)/C=C/c2ccc(OC(=O)CCN)c(OC)c2)ccc1OC(=O)CCN.Cl.Cl	39.6%

Tested on: Mus musculus
Test: Analgesic activity in albino mouse assessed as forepaw licking/jumping latency time at 10 mg/kg, ip measured after 90 mins by hot plate test (reference value: 2.72 +/- 0.01 sec)
Assay type: functional
Conditions: 1.5 h

SMILES	Time
COc1cc(/C=C/C(=O)/C=C(O)/C=C/c2ccc(OC(=O)CCN)c(OC)c2)ccc1OC(=O)CCN.Cl.Cl	4.16 s

Tested on: Mus musculus
Test: Analgesic activity in albino mouse assessed protection against acetic acid-induced abdominal writhing at 10 mg/kg, ip pretreated for 1 hr followed by acetic acid challenge and measured starting 5 mins post acetic acid challenge for 10 mins relative to indomethacin
Assay type: functional
Conditions: time 75 min, 1.25 h

SMILES	Activity
COc1cc(/C=C/C(=O)/C=C(O)/C=C/c2ccc(OC(=O)CCN)c(OC)c2)ccc1OC(=O)CCN.Cl.Cl	64.3%

Tested on: Mus musculus
Test: Analgesic activity in albino mouse assessed as forepaw licking/jumping latency time at 10 mg/kg, ip measured after 30 mins by hot plate test (reference value: 5.02 +/- 0.09 sec)
Assay type: functional
Conditions: 0.5 h

SMILES	Time
COc1cc(/C=C/C(=O)/C=C(O)/C=C/c2ccc(OC(=O)CCN)c(OC)c2)ccc1OC(=O)CCN.Cl.Cl	5.46 s

Tested on: Rattus norvegicus
Test: Antiinflammatory activity in Wistar rat model of carrageenan-induced paw edema assessed as reduction in thickness of paw edema at 10 mg/kg, ip pretreated for 1 hr followed by carrageenan challenge and measured after 2 hrs (reference value: 2.06 +/-0.09 mm)
Assay type: functional
Conditions: time 3 hrs

SMILES	Activity
COc1cc(/C=C/C(=O)/C=C(O)/C=C/c2ccc(OC(=O)CCN)c(OC)c2)ccc1OC(=O)CCN.Cl.Cl	0.6 mm

Tested on: Streptococcus pyogenes
Test: Antibacterial activity against Streptococcus pyogenes ATCC 19615 incubated for 18 hrs by agar dilution method
Assay type: functional
Conditions: not given

MIC	SMILES
1 µg/mL and 1.71 µM	COc1cc(/C=C/C(=O)/C=C(O)/C=C/c2ccc(OC(=O)CCN)c(OC)c2)ccc1OC(=O)CCN.Cl.Cl

Tested on: Mus musculus
Test: Analgesic activity in albino mouse assessed as protection at 10 mg/kg, ip measured after 90 mins by hot plate test (reference value: 0 %)
Assay type: functional
Conditions: 1.5 h

SMILES	Activity
COc1cc(/C=C/C(=O)/C=C(O)/C=C/c2ccc(OC(=O)CCN)c(OC)c2)ccc1OC(=O)CCN.Cl.Cl	52.9%

Tested on: Staphylococcus aureus
Test: Antibacterial activity against Staphylococcus aureus ATCC 25923 incubated for 18 hrs by agar dilution method
Assay type: functional
Conditions: not given

MIC	SMILES
1 µg/mL and 1.71 µM	COc1cc(/C=C/C(=O)/C=C(O)/C=C/c2ccc(OC(=O)CCN)c(OC)c2)ccc1OC(=O)CCN.Cl.Cl

Tested on: MCF7
Test: Antiproliferative activity against human MCF7 cells assessed as inhibition of cell growth after 72 hrs by MTT assay
Assay type: functional, cell-based
Conditions: MCF7, 72 h

IC50	SMILES
9.36 µM	COc1cc(/C=C/C(=O)/C=C(O)/C=C/c2ccc(OC(=O)CCN)c(OC)c2)ccc1OC(=O)CCN.Cl.Cl

Tested on: A549
Test: Antiproliferative activity against human A549 cells assessed as inhibition of cell growth after 72 hrs by MTT assay
Assay type: functional, cell-based
Conditions: A549, 72 h

IC50	SMILES
32.4 µM	COc1cc(/C=C/C(=O)/C=C(O)/C=C/c2ccc(OC(=O)CCN)c(OC)c2)ccc1OC(=O)CCN.Cl.Cl

Tested on: not listed separately
Test: Ulcerogenic activity in fasted albino mouse assessed as average severity of ulcers in gastric mucosa at 10 mg/kg, po for 3 days (reference value: 0)
Assay type: toxicity, organism-based
Conditions: in vivo, 72 h, time 3 day

SMILES	Activity
COc1cc(/C=C/C(=O)/C=C(O)/C=C/c2ccc(OC(=O)CCN)c(OC)c2)ccc1OC(=O)CCN.Cl.Cl	0

Tested on: Rattus norvegicus
Test: Antiinflammatory activity in Wistar rat model of carrageenan-induced paw edema assessed as reduction in thickness of paw edema at 10 mg/kg, ip pretreated for 1 hr followed by carrageenan challenge and measured after 4 hrs (reference value: 1.40 +/-0.10 mm)
Assay type: functional
Conditions: time 5 hrs

SMILES	Activity
COc1cc(/C=C/C(=O)/C=C(O)/C=C/c2ccc(OC(=O)CCN)c(OC)c2)ccc1OC(=O)CCN.Cl.Cl	0.16 mm

Tested on: PC-3
Test: Antiproliferative activity against human PC3 cells assessed as inhibition of cell growth after 72 hrs by MTT assay
Assay type: functional, cell-based
Conditions: PC-3, 72 h

IC50	SMILES
30.2 µM	COc1cc(/C=C/C(=O)/C=C(O)/C=C/c2ccc(OC(=O)CCN)c(OC)c2)ccc1OC(=O)CCN.Cl.Cl
